Drawing on patent US12024510B2, “Pyrazolopyridine-diamides, their use as insecticide and processes for preparing the same” (PI INDUSTRIES LTD., priority 2017, dated 2024), this text covers mortality for 22 molecules.

The subject of the first experiment is Helicoverpa armigera. Briefly: Helicoverpa armigera diet incorporation method. The note with it: third instar larvae, dead and moribund combined, 96 h after release. It is filed as in vivo. How it is done: (§1) Test Solutions were Prepared According to the Procedure Described Herein Below (500 PPM):
(§2) • 1. Eppendorf Vortex mixer (ThermoMixer C) and 1.5 mL Eppendorf tubes • 2. Zirconia (Zirconium-Yttrium) beads having diameter of 0.8 to 1.0 mm • 3. Microscope • 4. Beaker 100 mL • 5. Micro-pipette Reagents: • 1. Surfactant Solution • 2. De-mineralized (DM) Water • 1. Weigh 10 mg of the compound of the present invention to be tested in an Eppendorf Tube. • 2. Add 200 mg of the Surfactant Solution into the tube. • 3. Add 600 mg of Zirconia beads into the above mixture. • 4. Fix the tube in Eppendorf Vortex mixer and start vortexing at 2000 rpm. • 5. Mix on Vortex mixer for 30 minutes. After 30 minutes, observe the sample over a microscope at 400× resolution. • 6. If the Maximum particle size is more than 5 μm or average particle size is more than 2 μm or the particle size distribution is uneven, continue vortexing for another 30 minutes and again check the particle size using the microscope. Continue till the average particle size is below 2 microns. • 7. When the required particle size is achieved, add 1.0 mL DM water into the tube, close the cap, shake the tube thoroughly and transfer the contents, along with the beads, into a beaker. • 8. To rinse the tube, add another 1.0 mL of DM water into the tube, close the cap, shake well and transfer this into the same beaker. • 9. Repeat Step no. 8 one more time so that the tube is rinsed well and the compound of the present invention to be tested is transferred to the beaker. • 10. Add 16.8 mL of DM water into the beaker and stir well. • 11. The homogeneous dispersion can then be decanted into a glass vial, immediately, to separate the Zirconia beads. • 12. Immediately use this sample for biological testing. • 13. Further dilutions can be prepared by taking appropriate quantity of the aliquot of Step 10, immediately after stirring, and diluting as per requirement. The sample solution must be well mixed just before biological testing.
Diet incorporation method was used, in which and semi-synthetic diet was incorporated into the test solution when the temperature is approximately 50° C. in the bioassay containers and stirred thoroughly for properly mixing and then was allowed to cool for 30 min. The solidified diet was cut into equal pieces, and then each piece was transferred in one cell in Bio-assay trays. A single third instar starved larva was released into each of these cells of bioassay trays and the tray was covered with the lid. The bio-assay trays were kept under laboratory conditions at a temperature of 25° C. and Relative Humidity of 70%. Observations on dead, moribund and live larvae were recorded at 96 h after the release of larvae. Percent mortality was calculated by combining dead and moribund larvae. The following compound numbers
As usually defined, the mortality is the share of the test organisms that died. With `CCCNC(=O)c1c(NC(=O)c2cc(OC)nn2-c2ncccc2Cl)c(Br)cc2ccnn12` [Compound 120, 5-bromo-6-(1-(3-chloropyridin-2-yl)-3-methoxy-1H-pyrazole-5-carboxamido)-N-propylpyrazolo[1,5-a]pyridine-7-carboxamide], the mortality at 300 ppm is greater than 70%.

Regarding `Cc1cc2ccnn2c(C(=O)NCC(C)(C)C)c1NC(=O)c1cc(Br)nn1-c1ncccc1Cl` [Compound 175, 6-(3-bromo-1-(3-chloropyridin-2-yl)-1H-pyrazole-5-carboxamido)-5-methyl-N-neopentylpyrazolo[1,5-a]pyridine-7-carboxamide], the mortality at 300 ppm is greater than 70%.

As for `COc1cc(C(=O)Nc2c(Br)cc3ccnn3c2C(=O)NCC2CC2)n(-c2ncccc2Cl)n1` [Compound 123, 5-bromo-6-(1-(3-chloropyridin-2-yl)-3-methoxy-1H-pyrazole-5-carboxamido)-N-(cyclopropylmethyl)pyrazolo[1,5-a]pyridine-7-carboxamide], the mortality at 300 ppm is greater than 70%.

As to `COc1cc(C(=O)Nc2c(Br)cc3ccnn3c2C(=O)NC2CC2)n(-c2ncccc2Cl)n1` [Compound 122, 5-bromo-6-(1-(3-chloropyridin-2-yl)-3-methoxy-1H-pyrazole-5-carboxamido)-N-cyclopropylpyrazolo[1,5-a]pyridine-7-carboxamide], the mortality at 300 ppm was greater than 70%.

For the molecule `CCCNC(=O)c1c(NC(=O)c2cc(Cn3nnc(C(F)(F)F)n3)nn2-c2ncccc2Cl)c(Cl)cc2ccnn12` [Compound 155, 5-chloro-6-(1-(3-chloropyridin-2-yl)-3-((5-(trifluoromethyl)-2H-tetrazol-2-yl)methyl)-1H-pyrazole-5-carboxamido)-N-propylpyrazolo[1,5-a]pyridine-7-carboxamide], the mortality at 300 ppm was greater than 70%.

On to `Cc1cc2ccnn2c(C(=O)NCC2CCCC2)c1NC(=O)c1cc(Br)nn1-c1ncccc1Cl` [Compound 194, 6-(3-bromo-1-(3-chloropyridin-2-yl)-1H-pyrazole-5-carboxamido)-N-(cyclopentylmethyl)-5-methylpyrazolo[1,5-a]pyridine-7-carboxamide], for which the mortality at 300 ppm was greater than 70%.

In the case of `COCCNC(=O)c1c(NC(=O)c2cc(OC3CSC3)nn2-c2ncccc2Cl)c(C)cc2ccnn12` [Compound 161, 6-(1-(3-chloropyridin-2-yl)-3-(thietan-3-yloxy)-1H-pyrazole-5-carboxamido)-N-(2-methoxyethyl)-5-methylpyrazolo[1,5-a]pyridine-7-carboxamide], the mortality at 300 ppm is greater than 70%.

Regarding `Cc1cc2ccnn2c(C(=O)NC2(C)CC2)c1NC(=O)c1cc(Br)nn1-c1ncccc1Cl` [Compound 172, 6-(3-bromo-1-(3-chloropyridin-2-yl)-1H-pyrazole-5-carboxamido)-5-methyl-N-(1-methylcyclopropyl)pyrazolo[1,5-a]pyridine-7-carboxamide], the mortality at 300 ppm was greater than 70%.

As to `COc1cc(C(=O)Nc2c(C)cc3ccnn3c2C(=O)NCCC(C)C)n(-c2ncccc2Cl)n1` [Compound 211, 6-(1-(3-chloropyridin-2-yl)-3-methoxy-1H-pyrazole-5-carboxamido)-N-isopentyl-5-methylpyrazolo[1,5-a]pyridine-7-carboxamide], the mortality at 300 ppm is greater than 70%.

For `CONC(=O)c1c(NC(=O)c2cc(OC)nn2-c2ncccc2Cl)c(Br)cc2ccnn12` [Compound 124, 5-bromo-6-(1-(3-chloropyridin-2-yl)-3-methoxy-1H-pyrazole-5-carboxamido)-N-methoxypyrazolo[1,5-a]pyridine-7-carboxamide], the mortality at 300 ppm was greater than 70%.

With `COc1cc(C(=O)Nc2c(C)cc3ccnn3c2C(=O)NCC2CCCCO2)n(-c2ncccc2Cl)n1` (stereo not shown) [Compound 213, 6-(1-(3-chloropyridin-2-yl)-3-methoxy-1H-pyrazole-5-carboxamido)-5-methyl-N-((tetrahydro-2H-pyran-2-yl)methyl)pyrazolo[1,5-a]pyridine-7-carboxamide], the mortality at 300 ppm was greater than 70%.

Turning to `Cc1cc2ccnn2c(C(=O)NC(C)C(C)C)c1NC(=O)c1cc(Br)nn1-c1ncccc1Cl` (stereo not shown) [Compound 191, 6-(3-bromo-1-(3-chloropyridin-2-yl)-1H-pyrazole-5-carboxamido)-5-methyl-N-(3-methylbutan-2-yl)pyrazolo[1,5-a]pyridine-7-carboxamide], the mortality at 300 ppm was greater than 70%.

For `COc1cc(C(=O)Nc2c(C)cc3ccnn3c2C(=O)NCc2nccs2)n(-c2ncccc2Cl)n1` [Compound 204, 6-(1-(3-chloropyridin-2-yl)-3-methoxy-1H-pyrazole-5-carboxamido)-5-methyl-N-(thiazol-2-ylmethyl)pyrazolo[1,5-a]pyridine-7-carboxamide], the mortality at 300 ppm was greater than 70%.

The test system of another experiment is Plutella xylostella. Briefly: whole plant or invertebrate. The conditions noted are these: foliar, cabbage leaf dip, second instar larvae, dead and moribund combined, 72 h after release. It is filed as in vivo. Here is the method: as §1, §2
Leaf dip method was used for screening, wherein the required quantity of the compounds were weighed and dissolved in the test solution into the tube and vortex at 2000 rpm with Zirconia beads for 90 min for proper mixing, then mixed with 0.01% Triton-X solution to get the desired test concentration. Cabbage leaves were dipped in the solution for 10 seconds, shade dried for 20 min and then transferred to bioassay trays. Single second instar larva was released into each cell and the tray was covered with lid. The bio-assay trays were kept under laboratory conditions at a temperature of 25° C. and relative humidity of 70%. Observations on dead, moribund and live larvae were recorded at 72 h after the release. Percent mortality was calculated by combining dead and moribund larvae. The following compound num.
Consider `CCC(CC)NC(=O)c1c(NC(=O)c2cc(Br)nn2-c2ncccc2Cl)c(C)cc2ccnn12` [Compound 185, 6-(3-bromo-1-(3-chloropyridin-2-yl)-1H-pyrazole-5-carboxamido)-5-methyl-N-(pentan-3-yl)pyrazolo[1,5-a]pyridine-7-carboxamide], for which the mortality at 300 ppm is greater than 70%.

With `CONC(=O)c1c(NC(=O)c2cc(OC)nn2-c2ncccc2Cl)c(Cl)cc2ccnn12` [Compound 150, 5-chloro-6-(1-(3-chloropyridin-2-yl)-3-methoxy-1H-pyrazole-5-carboxamido)-N-methoxypyrazolo[1,5-a]pyridine-7-carboxamide], the mortality at 300 ppm was greater than 70%.

With `CCONC(=O)c1c(NC(=O)c2cc(OC)nn2-c2ncccc2Cl)c(C)cc2ccnn12` [Compound 112, 6-(1-(3-chloropyridin-2-yl)-3-methoxy-1H-pyrazole-5-carboxamido)-N-ethoxy-5-methylpyrazolo[1,5-a]pyridine-7-carboxamide], the mortality at 300 ppm was greater than 70%.

Turning to `CCC(COC)NC(=O)c1c(NC(=O)c2cc(Br)nn2-c2ncccc2Cl)c(C)cc2ccnn12` (stereo not shown) [Compound 192, 6-(3-bromo-1-(3-chloropyridin-2-yl)-1H-pyrazole-5-carboxamido)-N-(1-methoxybutan-2-yl)-5-methylpyrazolo[1,5-a]pyridine-7-carboxamide], the mortality at 300 ppm is greater than 70%.

For the molecule `CCNC(=O)c1c(NC(=O)c2cc(OC3CSC3)nn2-c2ncccc2Cl)c(C)cc2ccnn12` [Compound 144, 6-(1-(3-chloropyridin-2-yl)-3-(thietan-3-yloxy)-1H-pyrazole-5-carboxamido)-N-ethyl-5-methylpyrazolo[1,5-a]pyridine-7-carboxamide], the mortality at 300 ppm was greater than 70%.

`Cc1cc2ccnn2c(C(=O)NOC(C)C)c1NC(=O)c1cc(Br)nn1-c1ncccc1Cl` [Compound 105, 6-(3-bromo-1-(3-chloropyridin-2-yl)-1H-pyrazole-5-carboxamido)-N-isopropoxy-5-methylpyrazolo[1,5-a]pyridine-7-carboxamide]: the mortality at 300 ppm is greater than 70%.

In the case of `CCCNC(=O)c1c(NC(=O)c2cc(OC3CSC3)nn2-c2ncccc2Cl)c(C)cc2ccnn12` [Compound 103, 6-(1-(3-chloropyridin-2-yl)-3-(thietan-3-yloxy)-1H-pyrazole-5-carboxamido)-5-methyl-N-propylpyrazolo[1,5-a]pyridine-7-carboxamide], the mortality at 300 ppm was greater than 70%.

For the molecule `COCCNC(=O)c1c(NC(=O)c2cc(Br)nn2-c2ncccc2Cl)c(Br)cc2ccnn12` [Compound 88, 5-bromo-6-(3-bromo-1-(3-chloropyridin-2-yl)-1H-pyrazole-5-carboxamido)-N-(2-methoxyethyl)pyrazolo[1,5-a]pyridine-7-carboxamide], the mortality at 300 ppm was greater than 70%.

Turning to `Cc1cc2ccnn2c(C(=O)N2CCC2)c1NC(=O)c1cc(Br)nn1-c1ncccc1Cl` [Compound 34, N-(7-(azetidine-1-carbonyl)-5-methylpyrazolo[1,5-a]pyridin-6-yl)-3-bromo-1-(3-chloropyridin-2-yl)-1H-pyrazole-5-carboxamide], the mortality at 300 ppm was greater than 70%.
